Measurements from patent US20180099931A1 (AbbVie S.à.r.l., priority 2016, published 2018).
pEC50: −log10 of the molar value. Read-outs that look alike come from different tables or passages of the source.

Target: T1, F508delCFTR (Homo sapiens, UniProt P13569, DEL508-508)
T1 construct: expressed in transfected cells; host or cells: CFBE41o- human lung-derived epithelial cells (CFBE4lo-F508delCFTR-HRP), doxycycline-inducible
Test: Cell Surface Expression-Horse Radish Peroxidase (CSE-HRP) Assay;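 for Maximum % activity (with co-corrector): co-corrector and positive control are both the same reference corrector at 2 µM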;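 for Maximum % activity (without co-corrector): percent of the 2 µM on-plate positive control corrector response above DMSO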
Assay type: cell-based
Settings: for Maximum % activity (with co-corrector) / Emax: maximum at any tested concentration, normalized to on-plate positive control; for Emax: read-out: Maximum % activity (without co-corrector)

[1] = test compound without co-corrector, read-out: EC50 (without co-corrector)
[2] = with co-corrector (2 μM of 3-[(2R,4R)-4-({[1-(2,2-difluoro-1,3-benzodioxol-5-yl)cyclopropyl]carbonyl}amino)-7-methoxy-3,4-dihydro-2H-chromen-2-yl]benzoic acid), read-out: EC50 (with co-corrector)
[3] = CSE-HRP, test compound without co-corrector, read-out: EC50 (without co-corrector)
[4] = CSE-HRP, with co-corrector (2 μM of 3-[(2R,4R)-4-({[1-(2,2-difluoro-1,3-benzodioxol-5-yl)cyclopropyl]carbonyl}amino)-7-methoxy-3,4-dihydro-2H-chromen-2-yl]benzoic acid), read-out: EC50 (with co-corrector)
[5] = CSE-HRP, with co-corrector (2 μM)
[6] = test compound without co-corrector
[7] = with co-corrector (2 μM of 3-[(2R,4R)-4-({[1-(2,2-difluoro-1,3-benzodioxol-5-yl)cyclopropyl]carbonyl}amino)-7-methoxy-3,4-dihydro-2H-chromen-2-yl]benzoic acid)

T1 sequence (P13569 with tags, fused parts or gaps DEL508-508): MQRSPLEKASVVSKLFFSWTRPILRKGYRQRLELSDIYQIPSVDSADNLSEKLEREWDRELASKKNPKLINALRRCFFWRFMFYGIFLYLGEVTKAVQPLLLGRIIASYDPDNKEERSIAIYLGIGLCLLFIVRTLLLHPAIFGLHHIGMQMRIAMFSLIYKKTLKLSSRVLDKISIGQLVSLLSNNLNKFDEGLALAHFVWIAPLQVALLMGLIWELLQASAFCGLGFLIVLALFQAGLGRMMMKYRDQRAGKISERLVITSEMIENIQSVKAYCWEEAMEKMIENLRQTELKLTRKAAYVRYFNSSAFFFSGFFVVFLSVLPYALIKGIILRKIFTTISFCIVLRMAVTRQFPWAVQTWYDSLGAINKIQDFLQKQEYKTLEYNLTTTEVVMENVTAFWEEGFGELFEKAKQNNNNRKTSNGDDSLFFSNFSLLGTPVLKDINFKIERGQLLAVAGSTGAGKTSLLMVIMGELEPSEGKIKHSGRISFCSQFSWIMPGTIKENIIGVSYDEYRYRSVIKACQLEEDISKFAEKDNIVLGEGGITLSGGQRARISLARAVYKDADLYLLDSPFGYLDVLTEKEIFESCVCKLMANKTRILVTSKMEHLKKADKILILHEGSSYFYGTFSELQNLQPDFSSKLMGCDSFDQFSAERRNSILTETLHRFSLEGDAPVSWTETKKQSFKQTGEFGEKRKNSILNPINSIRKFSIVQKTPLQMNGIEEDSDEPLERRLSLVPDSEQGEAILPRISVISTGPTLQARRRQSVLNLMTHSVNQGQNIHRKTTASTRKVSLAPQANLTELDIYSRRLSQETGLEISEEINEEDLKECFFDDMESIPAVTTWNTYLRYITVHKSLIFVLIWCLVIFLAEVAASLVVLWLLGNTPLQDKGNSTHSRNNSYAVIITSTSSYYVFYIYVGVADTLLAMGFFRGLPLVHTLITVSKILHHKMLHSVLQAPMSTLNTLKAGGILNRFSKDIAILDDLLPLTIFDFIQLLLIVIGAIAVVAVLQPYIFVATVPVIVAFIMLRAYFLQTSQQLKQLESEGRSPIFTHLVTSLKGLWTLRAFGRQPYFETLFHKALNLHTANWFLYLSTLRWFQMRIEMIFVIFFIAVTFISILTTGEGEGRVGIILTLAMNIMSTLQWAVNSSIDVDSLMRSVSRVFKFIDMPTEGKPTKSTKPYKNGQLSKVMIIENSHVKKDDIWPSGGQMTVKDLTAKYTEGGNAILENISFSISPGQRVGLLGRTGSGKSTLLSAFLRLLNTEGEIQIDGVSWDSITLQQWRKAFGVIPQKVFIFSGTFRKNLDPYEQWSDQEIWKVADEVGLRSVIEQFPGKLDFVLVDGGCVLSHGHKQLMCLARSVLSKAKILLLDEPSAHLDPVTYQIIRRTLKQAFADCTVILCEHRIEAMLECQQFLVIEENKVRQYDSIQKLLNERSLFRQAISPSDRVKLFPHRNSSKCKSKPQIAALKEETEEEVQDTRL

| pEC50 [1] | pEC50 [2] | Maximum % activity (with co-corrector) (with co-corrector (2 μM)) | Emax (without co-corrector) | pEC50 [3] | pEC50 [4] | Maximum % activity (with co-corrector) [5] | Emax (CSE-HRP, without co-corrector) | Emax [6] | Maximum % activity (with co-corrector) [7] | SMILES |
| --- | --- | --- | --- | --- | --- | --- | --- | --- | --- | --- |
| < 5.00 | < 5.00 | + (<150) | < 100% |  |  |  |  |  |  | COc1ccc(CN(C)C)cc1CN[C@H]1[C@H](C(C)(C)C)[C@@H](C(=O)O)N(C(=O)C2CCCCC2)[C@H]1c1ccccc1 [Example I-85] |
| 5.00 to 6.00 | 5.00 to 6.00 | +++ (≥350) | > 200% |  |  |  |  |  |  | COc1ccc(C(C)(C)C)cc1CN[C@H]1[C@H](C(C)(C)C)[C@@H](C(=O)O)N(C(=O)CN2Cc3ccccc3C2)[C@H]1c1ccccc1 [Example I-91] |
| 5.00 to 6.00 | > 6.00 | +++ (≥350) | 100 to 200% |  |  |  |  |  |  | COc1nc(C(C)(C)C)ccc1CN[C@H]1[C@H](C(C)(C)C)[C@@H](C(=O)O)N(C(=O)[C@@H]2CCCCO2)[C@H]1c1cccnc1N(C)C [Example I-235] |
| > 6.00 | > 6.00 | +++ (≥350) | > 200% |  |  |  |  |  |  | COc1ccc(C(C)(C)C)cc1CN[C@H]1[C@H](C(C)(C)C)[C@@H](C(=O)O)N(C(=O)C(OC)C2CCCCC2)[C@H]1c1ccccc1 (stereo partly shown) [Example I-160] |
| 5.00 to 6.00 | 5.00 to 6.00 | +++ (≥350) | 100 to 200% |  |  |  |  |  |  | COc1ncc(C(F)(F)F)cc1CN[C@H]1[C@H](C(C)(C)C)[C@@H](C(=O)O)N(C(=O)[C@@H]2CCCCO2)[C@H]1c1cccnc1N(C)C [Example I-208] |
| 5.00 to 6.00 | 5.00 to 6.00 | +++ (≥350) | > 200% |  |  |  |  |  |  | COc1ccc(Cl)cc1CN[C@@H]1[C@@H](C(C)(C)C)[C@H](C(=O)O)N(C(=O)OC(C)C)[C@@H]1c1ccccc1 (racemic) [Example I-12] |
| > 6.00 | > 6.00 | +++ (≥350) | > 200% |  |  |  |  |  |  | COc1ccc(C23CC(C2)C3)cc1CN[C@H]1[C@H](C(C)(C)C)[C@@H](C(=O)O)N(C(=O)[C@@H]2CCCC(F)(F)C2)[C@H]1c1ccccc1 [Example 67, (2S,3S,4S,5S)-4-({[5-(bicyclo[1.1.1]pentan-1-yl)-2-methoxyphenyl]methyl}amino)-3-tert-butyl-1-[(1R)-3,3-difluorocyclohexane-1-carbonyl]-5-phenylpyrrolidine-2-carboxylic acid] |
| 5.00 to 6.00 | > 6.00 | +++ (≥350) | > 200% |  |  |  |  |  |  | COc1ccc(C2CC3CCC2C3)cc1CN[C@H]1[C@H](C(C)(C)OC)[C@@H](C(=O)O)N(C(=O)C2CCCCC2)[C@H]1c1ccccc1 (stereo partly shown) [Example I-117] |
|  |  |  |  | > 6.00 | 5.00 to 6.00 | ++ (≥150 and <350) | < 100% |  |  | CC(C)(C)[C@@H]1[C@@H](NCc2cc(Cl)ccc2OC(F)(F)F)[C@@H](c2ccccc2)N(C(=O)C2CCCCC2)[C@H]1C(=O)O (racemic) [II-75] |
| 5.00 to 6.00 | 5.00 to 6.00 | +++ (≥350) | > 200% |  |  |  |  |  |  | COc1ccc(C(C)(C)C(F)(F)F)cc1CN[C@H]1[C@H](C(C)(C)C)[C@@H](C(=O)O)N(C(=O)C2CCCCC2)[C@H]1c1ccccc1 [Example I-213] |
| 5.00 to 6.00 | 5.00 to 6.00 |  |  |  |  |  |  | 100 to 200% | +++ (≥350) | COc1ccc(C(C)(C)C)cc1CN[C@H]1[C@H](C(C)(C)C)[C@@H](C(=O)O)N(C(=O)C2CCC(O)(C(F)(F)F)CC2)[C@H]1c1cccnc1N(C)C (stereo partly shown) [II-463] |
| 5.00 to 6.00 | 5.00 to 6.00 |  |  |  |  |  |  | < 100% | ++ (≥150 and <350) | CC(C)(C)[C@@H]1[C@@H](Nc2cc(C#N)ccn2)[C@@H](c2ccccc2)N(C(=O)C2CCCCC2)[C@H]1C(=O)O (racemic) [III-42] |
|  |  |  |  | 5.00 to 6.00 | 5.00 to 6.00 | ++ (≥150 and <350) | < 100% |  |  | CC(C)(C)c1cccc(CN[C@H]2[C@H](C(C)(C)C)[C@@H](C(=O)O)N(C(=O)C3CCCCC3)[C@H]2c2ccccc2)c1 [II-121] |
|  |  |  |  | 5.00 to 6.00 | > 6.00 | +++ (≥350) | 100 to 200% |  |  | COc1ccc(C(C)(C)C)cc1CN[C@H]1[C@H](C(C)(C)C)[C@@H](C(=O)O)N(C(=O)C2CCCCC2)[C@H]1c1ccccc1OC [II-140] |
|  |  |  |  | 5.00 to 6.00 | > 6.00 | +++ (≥350) | > 200% |  |  | COc1ccc(C(C)(C)C)cc1CN[C@H]1[C@H](C(C)(C)C)[C@@H](C(=O)O)N(C(=O)CC2CCCC2(F)F)[C@H]1c1ccccc1 (stereo partly shown) [II-219] |
| 5.00 to 6.00 | > 6.00 |  |  |  |  |  |  | > 200% | +++ (≥350) | COc1ncc(C2CCC2)cc1CN[C@H]1[C@H](C(C)(C)C)[C@@H](C(=O)O)N(C(=O)C2CCCC(F)(F)C2)[C@H]1c1ccccc1 (stereo partly shown) [II-492] |

| pEC50 [1] | pEC50 [2] | Maximum % activity (with co-corrector) (with co-corrector (2 μM)) | Emax (without co-corrector) | pEC50 [3] | pEC50 [4] | Maximum % activity (with co-corrector) [5] | Emax (CSE-HRP, without co-corrector) | Emax [6] | Maximum % activity (with co-corrector) [7] | SMILES |
| --- | --- | --- | --- | --- | --- | --- | --- | --- | --- | --- |
| 5.00 to 6.00 | 5.00 to 6.00 |  |  |  |  |  |  | < 100% | ++ (≥150 and <350) | CC(C)OC(=O)N1[C@H](C(=O)O)[C@@H](C(C)(C)C)[C@H](NCC2CCCC(C(F)(F)F)C2)[C@@H]1c1ccccc1 (stereo partly shown) [II-584] |
|  |  |  |  | > 6.00 | > 6.00 | +++ (≥350) | > 200% |  |  | COc1ccc(C(C)(C)C)cc1CN[C@H]1[C@H](C(C)(C)C)[C@@H](C(=O)O)N(C(=O)Cc2c(F)cccc2F)[C@H]1c1ccccc1 [II-201] |
| 5.00 to 6.00 | 5.00 to 6.00 |  |  |  |  |  |  | > 200% | +++ (≥350) | COc1ccc(C2(C(F)(F)F)CC2)cc1CN[C@H]1[C@H](C(C)(C)C)[C@@H](C(=O)O)N(C(=O)OC(C)C)[C@H]1c1cccnc1N(C)C [II-559] |
| > 6.00 | > 6.00 |  |  |  |  |  |  | 100 to 200% | +++ (≥350) | COc1ncc(-c2ccc(C)cc2)cc1CN[C@H]1[C@H](C(C)(C)C)[C@@H](C(=O)O)N(C(=O)C2CCCCC2)[C@H]1c1ccccc1 [II-347] |
|  |  |  |  | 5.00 to 6.00 | 5.00 to 6.00 | +++ (≥350) | 100 to 200% |  |  | COc1cc(C(F)(F)F)ccc1CN[C@H]1[C@H](C(C)(C)C)[C@@H](C(=O)O)N(C(=O)[C@@H]2CCCCO2)[C@H]1c1cccnc1OC [II-92] |
| > 6.00 | > 6.00 | +++ (≥350) | > 200% |  |  |  |  |  |  | COc1ncc(C(C)(C)C)cc1CN[C@H]1[C@H](C(C)(C)C)[C@@H](C(=O)O)N(C(=O)C2CCCCC2)[C@H]1c1ccc(F)cc1 [Example I-130] |
| 5.00 to 6.00 | 5.00 to 6.00 | +++ (≥350) | 100 to 200% |  |  |  |  |  |  | COc1nc(C(C)(C)C)ccc1CN[C@H]1[C@H](C(C)(C)C)[C@@H](C(=O)O)N(C(=O)C2CCCCC2)[C@H]1c1cccnc1OC [Example I-230] |
|  |  |  |  | 5.00 to 6.00 | 5.00 to 6.00 | +++ (≥350) | 100 to 200% |  |  | COc1ccc(C(C)(C)C)cc1CN[C@H]1[C@H](C(C)(C)C)[C@@H](C(=O)O)N(C(=O)c2cccc(Cn3cncn3)c2)[C@H]1c1ccccc1 [II-225] |
|  |  |  |  | 5.00 to 6.00 | 5.00 to 6.00 | +++ (≥350) | 100 to 200% |  |  | COc1ccc(C(C)(C)C)cc1CN[C@H]1[C@H](C(C)(C)C)[C@@H](C(=O)O)N(C(=O)C2CCC2)[C@H]1c1ccccc1C(F)(F)F [Example I-277] |
| > 6.00 | > 6.00 | +++ (≥350) | > 200% |  |  |  |  |  |  | COc1ccc(-c2ccccc2)cc1CN[C@H]1[C@H](C(C)(C)OC)[C@@H](C(=O)O)N(C(=O)C2CCCCC2)[C@H]1c1ccccc1 [Example I-87] |
| > 6.00 | > 6.00 | +++ (≥350) |  |  |  |  |  | 100 to 200% |  | COc1cc2c(cc1CN[C@H]1[C@H](C(C)(C)C)[C@@H](C(=O)O)N(C(=O)C3CCCCC3)[C@H]1c1ccccc1)C(C)(C)CCC2(C)C [III-119] |
|  |  |  |  | 5.00 to 6.00 | > 6.00 | +++ (≥350) | > 200% |  |  | COc1ccc(Cl)cc1CN[C@H]1[C@H](C(C)(C)C)[C@@H](C(=O)O)N(C(=O)C2CCCCC2)[C@H]1c1ccccc1 [II-97] |
| 5.00 to 6.00 | 5.00 to 6.00 |  |  |  |  |  |  | 100 to 200% | +++ (≥350) | COc1cnc(-c2ccccc2F)cc1CN[C@H]1[C@H](C(C)(C)C)[C@@H](C(=O)O)N(C(=O)C2CCCCC2)[C@H]1c1ccccc1 [II-417] |
| < 5.00 | 5.00 to 6.00 |  |  |  |  |  |  | < 100% | ++ (≥150 and <350) | COc1ccc(C(F)(F)F)cc1CN[C@@H]1[C@@H](C(C)(C)C)[C@H](C(=O)O)N(C(=O)C(OC)c2ccccc2)[C@@H]1c1cccnc1N(C)C (relative stereo) [III-88] |
| 5.00 to 6.00 | 5.00 to 6.00 |  |  |  |  |  |  | 100 to 200% | +++ (≥350) | COc1cc2ccccc2cc1CN[C@H]1[C@H](C(C)(C)C)[C@@H](C(=O)O)N(C(=O)OC(C)C)[C@H]1c1cccnc1N(C)C [II-562] |
